# From PMC7735731, “Application of Magnetic Core–Shell Imprinted Nanoconjugates for the Analysis of Hordenine in Human Plasma-Preliminary Data on Pharmacokinetic Study after Oral Administration” (Journal of Agricultural and Food Chemistry, 2020)
# Several values for one entry are separate records, joined by “and”; a condition that tells them apart may be missing. Identical values can stand only once.
# Columns and labels:
# [1] = Pharmacokinetic study in healthy volunteers after oral administration of hordenine-rich dietary supplement (plasma, mag-MIP d-SPE, LC-MS/MS); assay type: in vivo, human
# Procedure: Quantitative analysis was performed using an Agilent 1260 Infinity system (Agilent Technologies, Santa Clara, CA, United States, https://www.agilent.com), equipped with a degasser, an autosampler, and a binary pump coupled to a QTRAP 4000 hybrid triple quadrupole/linear ion trap mass spectrometer (AB Sciex, Framingham, MA, United States, https://sciex.com). The turbo ion spray source was operated in positive mode. The curtain gas, ion source gas 1, ion source gas 2, and collision gas (all high-purity nitrogen) were set at 345, 207, 276 kPa, and “high” instrument units (4.6 × 10^–5 Torr), respectively. The ion spray voltage and source temperature were 5000 V and 600 °C, respectively. The target compounds were analyzed in multiple reaction monitoring mode. The quantitative multiple reaction monitoring transitions, declustering potential (DP) and collision energy (CE) for hordenine and hordenine-d6 were (m/z) 166 > 121 (DP = 61 V, CE = 21 V) and 172 > 121 (DP = 66 V, CE = 19 V), respectively. […] The column was maintained at 40 °C at the flow rate of 0.5 mL/min. The mobile phases consisted of 20 mM aqueous ammonium acetate as eluent A and acetonitrile with 0.2% formic acid as eluent B. The gradient (% B) was as follows: 0 min 10%, 1 min 10%, 3 min 95%, and 5 min 95%. The reequilibration of the column to the initial conditions lasted 1.5 min.
# For the optimization of the d-SPE process, a mass of 5 mg of mag-MIP was transferred to an Eppendorf tube together with a volume of 300 μL of untreated plasma sample (or in the optimization process: sample diluted with water or sample pretreated with methanol (1:1, v/v)). A sample of plasma pretreated with methanol was centrifuged (10 000g, 5 min) prior to loading to mag-MIP together with 30 μL of IS (c = 50 μg/L). Next, the tube was put on the vortex to provide contact time with the sorbent for 5 min (in the optimization of loading time, the step lasted 5, 15, 30, or 60 min). Then, the supernatant, separated from the sorbent by an external magnetic field, was discarded and the washing step was carried out by applying water, 300 μL of ultrapure water for 0.5 min on the vortex (or in the optimization process, methanol–water 85:15 v/v). The supernatant was removed in the same manner as described above. Finally, the elution took place by adding 500 μL of 5% ammonium hydroxide in methanol. The elution time was set for 5 min (in the optimization process, the step lasted 5, 15, 30, or 60 min). The elution fraction was separated from the sorbent by the application of an external magnetic field. In each optimized step, the recoveries of hordenine were analyzed. The eluate was evaporated to dryness (40 °C, 5 min), reconstituted in a volume of 70 μL of 20% aqueous methanol, and an aliquot of 10 μL was injected into the LC–MS/MS. Each experiment was performed in triplicate. The recovery was calculated by comparing the mean area response of plasma sample spiked before and after extraction.
# Three healthy volunteers (men, aged 25–30 years) were enrolled in this study after obtaining written informed consent. All participants were nonsmokers with body weight no less than 50 kg and body mass index 25.7 ± 3.7 kg/m^2. Their body weights were 80 kg (two volunteers) and 105 kg (one volunteer). Subjects neither consumed alcohol nor received any medication for 2 weeks prior to the start of the study. Hordenine was administered orally in the morning with a dose of 100 mg (in starch capsules) after overnight fasting. Plasma samples of approximately 2 mL were collected (in vials containing di-potassium ethylene diaminetetraacetic acid as an anticoagulant) before and at 20, 30, 45, 60, 75, 90, 120, 180, and 240 min post-dose. After collection, plasma samples were centrifuged at 2000g for 15 min at room temperature and plasma samples were analyzed. […]
# [2] = Pharmacokinetic profile of hordenine in plasma after alcohol free beer consumption by one volunteer; assay type: in vivo, human
# Text: It is known that hordenine levels in plasma after beer consumption are low.[10] Thus, to verify the newly proposed analytical method as well as to reveal its applicability, the evaluation of hordenine pharmacokinetics profiles after beer consumption was also investigated. The results are presented in Supporting Information Section S2.
# Determination of pharmacokinetic profile after beer consumption
# In order to reveal the applicability of new analytical method, the comparative studies of hordenine pharmacokinetic after alcohol free beer consumption was performed. Firstly we confirmed the presence of hordenine in the beverage since no data on hordenine content in alcohol free beer exist. Then the volunteer consumed 0.5 L of beer within 5 min. The blood was collected 10 min., 20 min., 30 min., 45 min., 1 h, 2 h, 4 h, and 6 h after the beginning of beer […]
# Regarding alcohol free beer the hordenine content was 1.3 mg/L for Karmi Classic, 1.2 mg/L for Żywiec, 2.5 mg/L for Heineken zero, 2.3 mg/L for Lech. Thus, for further experiments Heineken zero was selected. […]
# distribution Vz/F 1810 L. We confirmed the results of Sommer et al. (2020) that the Cmax is too low to directly interact with D2 receptors. One of the explanation of the lower Cl/F and Vz/F than obtained for supplement can be higher bioavailability of hordenine form beer than supplements and/or non linear pharmacokinetics. Thus, further study are needed.
# Figure A. Mean plasma concentration-time profile of hordenine after beer consumption by one
# [3] = Stability of the analyte in the biological matrix (human plasma) and the extract; assay type: in vitro ADME; conditions: for stability in extract in the autosampler: 48 h, 4 °C; for stability after short-term storage at room temperature / stability after freeze–thaw cycles: human plasma; for stability after short-term storage at room temperature: 4 h, 21 ± 2 °C; for stability after freeze–thaw cycles: three cycles at −20 °C storage, 25 °C thawing
# Procedure: Selectivity was evaluated using six blank plasma samples, which were evaluated for interference from the matrix components in the determination of hordenine. The accuracy and precision of the method were determined within runs (n = 5) and between runs (n = 15, five replicate samples on three separate runs) using quality control (QC) samples (0.1, 25, and 40 μg/L). Accuracy was expressed as percent relative error of the spiked nominal value, whereas precision was expressed as relative standard deviation (RSD). The linearity range was set between 0.05 and 50 μg/L. Eight point calibration lines (n = 3) were constructed by plotting peak area ratios of each targeted analyte to an area of IS versus the nominal concentration of the analyte. LLOQ was selected to give the signal at least five times higher than the signal of blank samples and satisfactory results of accuracy and precision. LLOQ, QCs, and calibration standards were prepared on blank plasma. The matrix effect was evaluated by analyzing low and high QCs using plasma from six different lots and included hemolyzed and hyperlipidemic plasma samples. Matrix factor (MF) was determined by calculating the ratio of the peak area in the presence of matrix (blank plasma spiked with the analyte post extraction) to the peak area in the absence of matrix (pure solution of the analyte). Additionally, the coefficient of variation (CV) of the IS-normalized MF (expressed as the MF of analyte divided by the MF of IS) was presented. All stability studies were performed at low and high QCs. The autosampler stability was determined after 48 h of extract storage in an autosampler (4 ± 0.5 °C). The freeze and thaw stabilities were determined in a process of three freeze–thaw cycles at −20 ± 2 °C storage temperature and 25 ± 0.5 °C thawing temperature, at least 12 h after freezing. The short-term stability was determined after 4 h of storage at room temperature, 21 ± 2 °C. Carryover was studied by injecting blank plasma sample after calibration standard at 40 μg/L
# [4] = Simple allometric scaling of rat t1/2 to human; conditions: from rat t1/2 4.6 ± 1.6 h with t1/2(Human) ∼ 4t1/2(Rat)
# Text: However, further studies are required.
# [5] = set-up: method as in PMID 25880244; conditions: rats, cited from earlier work
# dopamine D2 receptor = target: dopamine D2 receptor; set-up: method as in PMID 28281694; conditions: cited from earlier work
# [6] = weak base; source not given; cited from earlier work
# [7] = four volunteers, 1 L of beer with hordenine content 6.30 ± 0.19 mg/L; cited from earlier work
# [8] = cited from earlier work
# [9] = human plasma, single oral dose 100 mg hordenine, three healthy volunteers, mean
# [10] = male, human, plasma, single oral dose 100 mg hordenine, three healthy volunteers, mean
compound,measurement,setting,value
"CN(C)CCc1ccc(O)cc1 [hordenine, 4-(2-dimethylaminoethyl)phenol]",AUCt,[1]; [9],1390 µg·min/L
same,AUCt norm (body weight normalized),[1]; [9],16.5 µg·min/L/kg
same,AUC∞,[1]; [9],1440 µg·min/L
same,AUC∞ norm (body weight normalized),[1]; [9],17.1 µg·min/L/kg
same,concentration at 1 h,"[1]; male, human, in vivo, plasma collected at 1 h after administration of 100 mg of hordenine, read-out: calculated concentration in test plasma",8.7 ng/mL
same,Cmax,[1]; [10],16.4 ng/mL
same,MRT inf,[1]; [10],1.88 h
same,MRT last,[1]; [10],1.7 h
same,Tmax,[1]; [10],1.08 h
same,CL/F,"[1]; male, human, plasma, single oral dose 100 mg hordenine, three healthy volunteers, mean, read-out: Cl/Fnorm (body weight normalized) (converted)",51 L/h/kg
same,Vd/F,"[1]; male, human, plasma, single oral dose 100 mg hordenine, three healthy volunteers, mean, read-out: Vz/F (apparent distribution volume)",6000 L
same,Vd/F,"[1]; male, human, plasma, single oral dose 100 mg hordenine, three healthy volunteers, mean, read-out: Vz/Fnorm (body weight normalized)",66 L/kg
same,half-life,"[1]; male, human, plasma, single oral dose 100 mg hordenine, three healthy volunteers, mean, read-out: t1/2 (terminal half-life)",0.9 h
same,Cl/F (apparent plasma clearance),"[1]; single oral dose 100 mg hordenine, three healthy volunteers, mean",4700 ± 1700 L/h and 4700 L/h
same,apparent oral clearance (Cl/F),[2]; 0.5 L alcohol free beer (hordenine 2.5 mg/L),2320 L/h
same,time to reach Cmax,"[2]; 0.5 L alcohol free beer, from the beginning of beer consumption",25 min
same,Cmax,"[2]; human, plasma, oral, 1.25 mg, 0.5 L alcohol free beer (Heineken zero, hordenine 2.5 mg/L)",0.4 ng/mL
same,Vd/F,"[2]; human, plasma, oral, 1.25 mg, 0.5 L alcohol free beer (hordenine 2.5 mg/L), read-out: volume of distribution Vz/F",1810 L
same,stability in extract in the autosampler,[3]; QC1 (0.1 μg/L),94%
same,stability in extract in the autosampler,[3]; QC3 (40 μg/L),110%
same,stability after short-term storage at room temperature,[3]; QC1 (0.1 μg/L),103%
same,stability after freeze–thaw cycles,[3]; QC1 (0.1 μg/L),108%
same,stability after short-term storage at room temperature,[3]; QC3 (40 μg/L),107%
same,stability after freeze–thaw cycles,[3]; QC3 (40 μg/L),104%
same,estimated t1/2(Human) by allometric scaling,[4],1.15 ± 0.4 h
same,t1/2 (hordenine elimination),"[5]; oral administration, dose of 15 mg/kg",4.6 ± 1.6 h
same,bioavailability,[5],66.2%
same,EC50,dopamine D2 receptor,0.61 mg/L
same,pKa of the strongest bases,[6],9.19
same,maximum plasma concentrations,[7],1.98 to 2.85 µg/L
same,blood–brain barrier crossing,[8],can cross the blood–brain barrier
